According to ChEMBL document CHEMBL4483862, “Open-source discovery of chemical leads for next-generation chemoprotective antimalarials” (2018):

Tested on: Plasmodium berghei
Test: Luciferase/luciferin-expressing antifolate-resistant parasites were used to infect a culture of HepG2 cells that were pre-incubated with compounds. Infected hepatocytes emit light due to the luciferase reaction. Assay results are presented as the percent inhibition of light emission compared to control. […]
Type: functional
Conditions: sporozoite; for IC90: read-out: LUCIFERASE INFECTION ASSAY - IC90
[1] = read-out: LUCIFERASE INFECTION ASSAY - IC50

Row | Structure (SMILES) | IC90 | other results
1 | COc1cc(-c2cnc3cnc(-c4ccsc4)cn23)cc(OC)c1OC | 1.45 µM | IC50 (FFLUC_HILL_SLOPE 0.573, FFLUC_R_SQUARED 0.0155, HEPG2TOX_HILL_SLOPE 1.65, HEPG2TOX_R_SQUARED 0.878, PBLUC_HILL_SLOPE 3.42, PBLUC_R_SQUARED 0.766, read-out: LUCIFERASE INFECTION ASSAY - IC50): 0.761 µM
2 | c1ccc(NCc2ccc(-c3cn4c(-c5cccnc5)cnc4cn3)cc2)cc1 | 7.31 µM | IC50 (PBLUC_HILL_SLOPE 2.17, PBLUC_R_SQUARED 0.86, read-out: LUCIFERASE INFECTION ASSAY - IC50): 2.66 µM
3 | O=C(Nc1nc(CN2CCOCC2)cs1)c1ccccc1Nc1ccccc1 | > 10 µM | IC50 [1]: > 10 µM
4 | Fc1ccc(-c2cnc3cnc(-c4cccs4)cn23)cc1Cl | > 10 µM | IC50 (HEPG2TOX_HILL_SLOPE 0.129, HEPG2TOX_R_SQUARED 0.552, PBLUC_HILL_SLOPE 2.11, PBLUC_R_SQUARED 0.543, read-out: LUCIFERASE INFECTION ASSAY - IC50): 4.6 µM
5 | Cc1nc2ccccc2c(=O)n1/N=C/c1cn(-c2ccccc2)nc1-c1cccs1 | > 10 µM | IC50 (PBLUC_HILL_SLOPE 10.9, PBLUC_R_SQUARED 0.148, read-out: LUCIFERASE INFECTION ASSAY - IC50): 8.36 µM
6 | Cc1cc(C)c(NC(=O)c2cc(C)on2)c(C)c1 | > 10 µM | IC50 (HEPG2TOX_HILL_SLOPE 17.1, HEPG2TOX_R_SQUARED 0.826, PBLUC_HILL_SLOPE 16.1, PBLUC_R_SQUARED 0.022, read-out: LUCIFERASE INFECTION ASSAY - IC50): 9.8 µM
7 | Cc1noc(CSc2nnc(Nc3ccc(OC(F)(F)F)cc3)s2)n1 | > 10 µM | IC50 (HEPG2TOX_HILL_SLOPE 3.01, HEPG2TOX_R_SQUARED 0.966, PBLUC_HILL_SLOPE 1.72, PBLUC_R_SQUARED 0.424, read-out: LUCIFERASE INFECTION ASSAY - IC50): 4.45 µM
8 | Cc1cc(C(=O)COC(=O)c2ccccc2C(F)(F)F)c(C)n1Cc1ccccc1Cl | 3.52 µM | IC50 (HEPG2TOX_HILL_SLOPE 0.164, HEPG2TOX_R_SQUARED 0.816, PBLUC_HILL_SLOPE 1.63, 0.884, PBLUC_R_SQUARED 0.848, 0.800, read-out: LUCIFERASE INFECTION ASSAY - IC50): 0.696 µM
9 | N=C(NOC(=O)c1cnn(-c2ccccc2)c1C(F)(F)F)c1ccc(Cl)cc1 | > 8.07 µM | IC50 [1]: 1.06 µM
10 | CCNC(=O)NC(=O)C(Sc1nncn1-c1ccccc1OC)c1ccccc1 (stereo not given) | 9.43 µM | IC50 (HEPG2TOX_HILL_SLOPE 2.69, HEPG2TOX_R_SQUARED 0.767, PBLUC_HILL_SLOPE 3.33, PBLUC_R_SQUARED 0.658, read-out: LUCIFERASE INFECTION ASSAY - IC50): 4.87 µM
11 | Cc1ccc2nc(NC(=O)c3cccc(F)c3)c(C(=O)NC3CCCCC3)n2c1 | 0.924 µM | IC50 (HEPG2TOX_HILL_SLOPE 1.74, HEPG2TOX_R_SQUARED 0.865, PBLUC_HILL_SLOPE 15.6, PBLUC_R_SQUARED 0.75, read-out: LUCIFERASE INFECTION ASSAY - IC50): 0.803 µM
12 | Cc1nn(CC(=O)NCCCN2c3ccccc3Sc3ccccc32)c(C)c1[N+](=O)[O-] | > 10 µM | IC50 [1]: > 10 µM
13 | C=S(=O)(NC(=O)CSc1ccc(Cl)cc1)c1ccc(C)cc1 (stereo not given) | > 9.32 µM | IC50 [1]: > 9.32 µM
14 | Clc1cccc(-c2cc3c(Nc4ccccn4)nccc3[nH]2)c1 | 6.66 µM | IC50 [1]: 6.48 µM
15 | Cn1c(NCc2ccccc2)nc2cnc(Nc3ccc(F)cc3)cc21 | > 10 µM | IC50 [1]: > 10 µM
16 | O=C(COc1ccccc1C(=O)Nc1nc(-c2ccccc2)cs1)Nc1cccc(C(F)(F)F)c1 | 5.93 µM | IC50 (HEPG2TOX_HILL_SLOPE 11.2, HEPG2TOX_R_SQUARED 0.982, PBLUC_HILL_SLOPE 4.71, PBLUC_R_SQUARED 0.747, read-out: LUCIFERASE INFECTION ASSAY - IC50): 3.72 µM
17 | c1cc[n+](Cc2ccc(-c3nc4ccccc4s3)cc2)cc1 | 7.9 µM | IC50 (PBLUC_HILL_SLOPE 1.53, PBLUC_R_SQUARED 0.36, read-out: LUCIFERASE INFECTION ASSAY - IC50): 1.88 µM
18 | Cc1cc(C)cc(-n2nc(C)c3c2NC(=O)CC3c2ccc3c(c2)OCO3)c1 (stereo not given) | > 8.79 µM | IC50 (PBLUC_HILL_SLOPE 3.57, PBLUC_R_SQUARED 0.259, read-out: LUCIFERASE INFECTION ASSAY - IC50): 7.56 µM
19 | CC(C)CN1CCOC(CSc2nc3sc4c(c3c(=O)n2C)CCC4)C1 (stereo not given) | > 10 µM | IC50 [1]: > 10 µM
20 | c1ccc(Oc2cccc(-c3ccc4nnc(-c5ccc6nccnc6c5)n4c3)c2)cc1 | > 10 µM | IC50 (PBLUC_HILL_SLOPE 2.21, PBLUC_R_SQUARED 0.734, read-out: LUCIFERASE INFECTION ASSAY - IC50): 4.56 µM

Row | Structure (SMILES) | IC90 | other results
21 | O=C(Nc1ccccc1)Nc1ccccc1Sc1nccc(C(F)(F)F)n1 | 8.05 µM | IC50 (PBLUC_HILL_SLOPE 1.34, PBLUC_R_SQUARED 0.717, read-out: LUCIFERASE INFECTION ASSAY - IC50): 1.57 µM
22 | CC1CCN(/C(=N/S(=O)(=O)c2ccc(-n3nc(C(F)(F)F)cc3-c3cccs3)cc2)N/N=C/c2ccc(Cl)cc2)CC1 | > 5.2 µM | IC50 (FFLUC_HILL_SLOPE 12.3, FFLUC_R_SQUARED 0.48, read-out: LUCIFERASE INFECTION ASSAY - IC50): > 5.2 µM
23 | O=C(NCc1ccc(Oc2ccc(F)cc2)cc1)C1Cc2ccccc2O1 (stereo not given) | 3.84 µM | IC50 (HEPG2TOX_HILL_SLOPE 1.58, HEPG2TOX_R_SQUARED 0.911, PBLUC_HILL_SLOPE 12.2, PBLUC_R_SQUARED 0.351, read-out: LUCIFERASE INFECTION ASSAY - IC50): 3.21 µM
24 | Cc1[nH]c2ccccc2c1C(=O)C(C)OC(=O)C1(c2cccc(F)c2)CCCC1 (stereo not given) | > 10 µM | IC50 (HEPG2TOX_HILL_SLOPE 0.175, HEPG2TOX_R_SQUARED 0.148, read-out: LUCIFERASE INFECTION ASSAY - IC50): > 10 µM
25 | O=C(Nc1cccc2c[nH]nc12)c1ccc(Oc2ccccc2)cc1 | > 10 µM | IC50 (PBLUC_HILL_SLOPE 18.4, PBLUC_R_SQUARED 0.556, read-out: LUCIFERASE INFECTION ASSAY - IC50): 9.05 µM
26 | O=C1c2ccccc2SC1(c1nc2ccccc2s1)c1nc2ccccc2s1 | 9.86 µM | IC50 (FFLUC_HILL_SLOPE 17.4, FFLUC_R_SQUARED 0.735, PBLUC_HILL_SLOPE 16.6, PBLUC_R_SQUARED 0.262, read-out: LUCIFERASE INFECTION ASSAY - IC50): 8.63 µM
27 | COc1cc(OC)c(C(=O)/C=C/c2cccnc2)cc1Cl | 3.76 µM | IC50 [1]: 3.3 µM
28 | NNC(=S)c1cc(Cl)cc(Cl)c1 | 7.72 µM | IC50 (PBLUC_HILL_SLOPE 7.79, PBLUC_R_SQUARED 0.6, read-out: LUCIFERASE INFECTION ASSAY - IC50): 5.82 µM
29 | CC(=O)N(c1nc(/C=C2\CCOc3ccc(F)cc3C2=O)cs1)c1cccc(C)c1C | > 10 µM | IC50 (FFLUC_HILL_SLOPE 1.6, FFLUC_R_SQUARED 0.338, PBLUC_HILL_SLOPE 1.6, PBLUC_R_SQUARED 0.162, read-out: LUCIFERASE INFECTION ASSAY - IC50): > 10 µM
30 | CC(C)(C)c1nc(-c2ccc(N)cc2)no1 | 9.21 µM | IC50 (HEPG2TOX_HILL_SLOPE 0.127, HEPG2TOX_R_SQUARED 0.315, PBLUC_HILL_SLOPE 1.58, PBLUC_R_SQUARED 0.494, read-out: LUCIFERASE INFECTION ASSAY - IC50): 2.28 µM
31 | CNc1nc2cnc(-c3cncc(OC)c3)cc2n1Cc1ccc(OC)c(OC)c1 | > 10 µM | IC50 (PBLUC_HILL_SLOPE 6.98, PBLUC_R_SQUARED 0.0782, read-out: LUCIFERASE INFECTION ASSAY - IC50): 8.17 µM
32 | CCCN(CCC)Cc1c(O)ccc2c1O/C(=C\c1ccc(OCC)cc1)C2=O | > 8.34 µM | IC50 (HEPG2TOX_HILL_SLOPE 7.71, HEPG2TOX_R_SQUARED 0.351, PBLUC_HILL_SLOPE 26.6, PBLUC_R_SQUARED 0.241, read-out: LUCIFERASE INFECTION ASSAY - IC50): 7.9 µM
33 | COc1ccc(CC2(Cc3ccc(OC)c(F)c3)C(=O)N(c3ccccc3C)C(=O)c3ccccc32)cc1F | > 10 µM | IC50 (FFLUC_HILL_SLOPE 0.212, FFLUC_R_SQUARED 0.0258, read-out: LUCIFERASE INFECTION ASSAY - IC50): > 10 µM
34 | COc1ccc(Cn2c(C)nc3oc4ccccc4c(=O)c3c2=O)cc1 | > 9.47 µM | IC50 (PBLUC_HILL_SLOPE 3.46, PBLUC_R_SQUARED 0.26, read-out: LUCIFERASE INFECTION ASSAY - IC50): 6.48 µM
35 | C=CCN(c1ccc(C(=O)Nc2ccc(C(F)(F)F)cc2)cc1)S(C)(=O)=O | 7.12 µM | IC50 (HEPG2TOX_HILL_SLOPE 1.13, HEPG2TOX_R_SQUARED 0.916, PBLUC_HILL_SLOPE 2.09, PBLUC_R_SQUARED 0.336, read-out: LUCIFERASE INFECTION ASSAY - IC50): 2.49 µM
36 | CCCCN(C(=O)CSc1nnc(-c2ccc(OC)cc2)n1C(C)C)c1c(N)n(CCCC)c(=O)[nH]c1=O | > 10 µM | IC50 [1]: > 10 µM
37 | N#Cc1cccc(-c2nnco2)c1 | > 10 µM | IC50 [1]: > 10 µM
38 | Cn1c(-c2ccco2)nc2cnc(Nc3cccc(C(F)(F)F)c3)cc21 | > 10 µM | IC50 (FFLUC_HILL_SLOPE 19, FFLUC_R_SQUARED 0.549, HEPG2TOX_HILL_SLOPE 17, HEPG2TOX_R_SQUARED 0.382, PBLUC_HILL_SLOPE 1.81, PBLUC_R_SQUARED 0.343, read-out: LUCIFERASE INFECTION ASSAY - IC50): 8.8 µM
39 | CC(C)(C)c1ccc(-c2nnc(SCc3ccccc3Cl)n2-c2cccc(C(F)(F)F)c2)cc1 | > 6.57 µM | IC50 (PBLUC_HILL_SLOPE 55, PBLUC_R_SQUARED 0.768, read-out: LUCIFERASE INFECTION ASSAY - IC50): 6.56 µM
40 | Cc1cc(C)n(CCC(=O)N2CCN(C(c3ccc(F)cc3)c3ccc(F)cc3)CC2)n1 | > 10 µM | IC50 (HEPG2TOX_HILL_SLOPE 1.37, HEPG2TOX_R_SQUARED 0.338, PBLUC_HILL_SLOPE 18.9, PBLUC_R_SQUARED 0.322, read-out: LUCIFERASE INFECTION ASSAY - IC50): 9.4 µM
